Laboratory results as given in patent US12622915B2, “Methods of treating PDE IV-mediated diseases or conditions” (Vanda Pharmaceuticals Inc., priority 2020, dated 2026).

Tests used:
[1] = biological target: T1, Phosphodiesterase PDE4A1A (Homo sapiens, UniProt P27815); assay: Phosphodiesterase PDE4A1A enzyme assay; format: biochemical
T1 construct: host or cells: insect Sf9 cells
From the text: (§1) Reference standards are run as an integral part of each assay to ensure the validity of the results obtained. Reference Compounds: • Phosphodiesterase PDE10A2 Papaverine • Phosphodiesterase PDE11A4 Dipyridamole • Phosphodiesterase PDE1A MMPX • Phosphodiesterase PDE2A EHNA • Phosphodiesterase PDE3A Cilostamide • Phosphodiesterase PDE4A1A Rolipram • Phosphodiesterase PDE4B1 Rolipram • Phosphodiesterase PDE5A Zaprinast • Phosphodiesterase PDE6 Zaprinast • Phosphodiesterase PDE7A IBMX • Phosphodiesterase PDE7B IBMX • Phosphodiesterase PDE8A1 Dipyridamole • Phosphodiesterase PDE9A2 Zaprinast
(§2) PDE4 assays are performed using methods adapted from the literature. See Richter W, et al. (2001) Identification of inhibitor binding sites of the cAMP-specific phosphodiesterase 4. Cell Signal. 13(4): 287-297; Wang H, et al. (2005) Multiple elements jointly determine inhibitor selectivity of cyclic nucleotide phosphodiesterases 4 and 7. J Biol Chem. 280(35): 30949-30955.
(§3) Phosphodiesterase PDE4A1A; Phosphodiesterase PDE4B1; Phosphodiesterase PDE10A2; Phosphodiesterase PDE11A4; Phosphodiesterase PDE2A; Phosphodiesterase PDE3A; Phosphodiesterase PDE7A; Phosphodiesterase PDE7B; and Phosphodiesterase PDE8A1: • Source: Human recombinant insect Sf9 cells • Substrate: 0.10 μM FAM-cAMP • Vehicle: 1.00% DMSO • Significance Crit.: ≥50% of max stimulation or inhibition • Incubation Buffer: 10 mM Tris-HCl, pH 7.2, 10 mM MgCl2, 0.05% NaN3, 0.1% phosphate-free BSA • Quantitation Method: Quantitation of Fluorescein-AMP-IMAP • Pre-Incub. Time/Temp: 15 minutes @25° C. • Incubation Time/Temp: 30 minutes @25° C.
(§4) IC50 values are determined by a non-linear, least squares regression analysis using MathIQ™ (ID Business Solutions Ltd., UK). Where inhibition constants (Ki) are presented, the Ki values are calculated using the equation of Cheng and Prusoff (Cheng, Y., Prusoff, W. H., Biochem. Pharmacol. 22:3099-3108, 1973) using the observed IC50 of the tested compound, the concentration of radioligand employed in the assay, and the historical values for the KD of the ligand. Where presented, the Hill coefficient (nH), defining the slope of the competitive binding curve, is calculated using MathIQ™. […] Where IC50, Ki, and/or nH data are presented without Standard Error of the Mean (SEM), data are insufficient to be quantitative, and the values presented (Ki, IC50, nH) are interpreted with caution.
(§5) Reference standards are run as an integral part of each assay to ensure the validity of the results obtained. Rolipram is used for the PDE4 assays.
(§6) Phosphodiesterase PDE4A1A: • Source: Human recombinant insect Sf9 cells • Substrate: 0.10 μM FAM-cAMP • Vehicle: 1.00% DMSO • Significance Crit.: ≥50% of max stimulation or inhibition • Incubation Buffer: 10 mM Tris-HCl, pH 7.2, 10 mM MgCl2, 0.05% NaN3, 0.1% phosphate-free BSA • Quantitation Method: Quantitation of Fluorescein-AMP-IMAP • Pre-Incub. Time/Temp: 15 minutes @25° C. • Incubation Time/Temp: 30 minutes @25° C.
as §4, with “W.H.,” for “W. H.,”

[2] = Preclinical genotoxicity studies (mutations, clastogenic effects); conditions: in vitro or in vivo
[3] = biological target: T2, Phosphodiesterase PDE10A2 (Homo sapiens, UniProt Q9Y233); assay: Phosphodiesterase PDE10A2 enzyme assay; format: biochemical; conditions: N=2, Example 3
T2 construct: host or cells: insect Sf9 cells
T2 sequence (Q9Y233 267-1055): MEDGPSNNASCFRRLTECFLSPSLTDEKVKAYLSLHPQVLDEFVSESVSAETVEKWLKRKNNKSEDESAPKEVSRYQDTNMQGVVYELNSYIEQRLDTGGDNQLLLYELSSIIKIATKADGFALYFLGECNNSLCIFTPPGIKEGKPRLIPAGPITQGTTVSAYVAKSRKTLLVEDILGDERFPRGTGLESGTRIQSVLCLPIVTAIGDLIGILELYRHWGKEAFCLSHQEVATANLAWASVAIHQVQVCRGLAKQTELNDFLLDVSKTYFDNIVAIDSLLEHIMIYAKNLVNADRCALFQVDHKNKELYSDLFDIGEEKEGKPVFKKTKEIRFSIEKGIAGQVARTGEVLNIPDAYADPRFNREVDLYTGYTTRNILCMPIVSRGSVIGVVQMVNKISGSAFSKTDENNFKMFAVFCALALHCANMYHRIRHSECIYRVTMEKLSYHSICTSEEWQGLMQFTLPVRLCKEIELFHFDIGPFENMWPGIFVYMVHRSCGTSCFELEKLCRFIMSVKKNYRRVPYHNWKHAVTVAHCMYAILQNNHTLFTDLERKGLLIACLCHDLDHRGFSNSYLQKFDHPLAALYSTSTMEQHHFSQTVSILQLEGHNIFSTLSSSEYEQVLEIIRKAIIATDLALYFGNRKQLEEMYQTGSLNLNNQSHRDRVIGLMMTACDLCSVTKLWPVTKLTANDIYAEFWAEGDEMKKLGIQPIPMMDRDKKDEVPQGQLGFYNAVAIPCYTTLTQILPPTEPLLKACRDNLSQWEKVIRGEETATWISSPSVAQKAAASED
From the text: as §1, §3
(§7) IC50 values are determined by a non-linear, least squares regression analysis using MathIQ™ (ID Business Solutions Ltd., UK). […]

[4] = biological target: T3, Phosphodiesterase PDE11A4 (Homo sapiens, UniProt Q9HCR9); assay: Phosphodiesterase PDE11A4 enzyme assay; format: biochemical; conditions: N=2, Example 3
T3 construct: host or cells: insect Sf9 cells
T3 sequence (Q9HCR9 whole entry): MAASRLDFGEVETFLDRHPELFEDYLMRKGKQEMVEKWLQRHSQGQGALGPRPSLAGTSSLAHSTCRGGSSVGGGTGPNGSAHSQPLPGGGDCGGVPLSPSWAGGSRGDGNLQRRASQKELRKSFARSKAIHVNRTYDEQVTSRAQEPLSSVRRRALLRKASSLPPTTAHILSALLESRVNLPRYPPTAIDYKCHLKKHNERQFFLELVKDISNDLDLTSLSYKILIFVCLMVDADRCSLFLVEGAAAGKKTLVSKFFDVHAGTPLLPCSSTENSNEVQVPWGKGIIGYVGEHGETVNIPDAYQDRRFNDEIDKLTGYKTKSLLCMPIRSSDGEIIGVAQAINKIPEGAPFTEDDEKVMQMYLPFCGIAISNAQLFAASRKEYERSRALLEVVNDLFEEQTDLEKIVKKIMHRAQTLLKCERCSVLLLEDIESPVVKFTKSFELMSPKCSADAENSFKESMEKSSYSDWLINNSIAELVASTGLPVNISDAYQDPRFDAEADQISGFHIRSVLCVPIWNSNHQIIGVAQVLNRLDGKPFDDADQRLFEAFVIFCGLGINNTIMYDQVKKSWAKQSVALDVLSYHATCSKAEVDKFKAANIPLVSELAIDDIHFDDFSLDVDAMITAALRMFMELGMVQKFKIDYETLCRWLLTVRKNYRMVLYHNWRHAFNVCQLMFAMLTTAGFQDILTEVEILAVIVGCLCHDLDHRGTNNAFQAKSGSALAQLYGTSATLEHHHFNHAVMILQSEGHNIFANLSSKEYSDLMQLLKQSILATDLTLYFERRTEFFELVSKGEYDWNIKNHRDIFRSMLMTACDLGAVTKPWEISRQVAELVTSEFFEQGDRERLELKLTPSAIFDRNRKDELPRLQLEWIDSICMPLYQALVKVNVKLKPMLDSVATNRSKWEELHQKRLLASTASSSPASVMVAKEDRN
From the text: as §1, §3, §7

[5] = biological target: T4, Phosphodiesterase PDE4B1 (Homo sapiens, UniProt Q07343); assay: Phosphodiesterase PDE4B1 enzyme assay; format: biochemical
T4 construct: host or cells: insect Sf9 cells
T4 sequence (Q07343 whole entry): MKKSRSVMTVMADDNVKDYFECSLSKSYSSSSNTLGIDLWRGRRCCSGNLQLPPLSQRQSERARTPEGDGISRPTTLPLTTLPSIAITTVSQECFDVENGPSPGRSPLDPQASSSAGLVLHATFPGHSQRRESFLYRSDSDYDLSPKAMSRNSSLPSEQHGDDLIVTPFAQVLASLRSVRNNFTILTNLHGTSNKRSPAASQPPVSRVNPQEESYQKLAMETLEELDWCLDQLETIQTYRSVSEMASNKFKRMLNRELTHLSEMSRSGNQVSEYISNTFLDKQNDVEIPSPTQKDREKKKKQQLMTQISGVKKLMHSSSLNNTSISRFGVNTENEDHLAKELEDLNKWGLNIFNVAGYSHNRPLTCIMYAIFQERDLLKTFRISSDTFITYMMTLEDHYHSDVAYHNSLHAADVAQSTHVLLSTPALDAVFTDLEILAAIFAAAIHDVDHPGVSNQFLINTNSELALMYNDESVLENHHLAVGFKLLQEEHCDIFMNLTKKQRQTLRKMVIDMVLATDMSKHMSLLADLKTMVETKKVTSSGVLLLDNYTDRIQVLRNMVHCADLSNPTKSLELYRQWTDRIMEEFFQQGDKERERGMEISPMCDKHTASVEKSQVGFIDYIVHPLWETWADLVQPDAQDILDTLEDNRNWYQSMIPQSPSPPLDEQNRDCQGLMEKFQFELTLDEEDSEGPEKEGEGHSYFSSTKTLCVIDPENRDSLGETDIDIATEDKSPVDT
From the text: as §1, §2, §3, §4, §5
as §6, with “PDE4B1:” for “PDE4A1A:”
as §4, with “W.H.,” for “W. H.,”

T1 sequence (P27815 1-647 isoform P27815-4): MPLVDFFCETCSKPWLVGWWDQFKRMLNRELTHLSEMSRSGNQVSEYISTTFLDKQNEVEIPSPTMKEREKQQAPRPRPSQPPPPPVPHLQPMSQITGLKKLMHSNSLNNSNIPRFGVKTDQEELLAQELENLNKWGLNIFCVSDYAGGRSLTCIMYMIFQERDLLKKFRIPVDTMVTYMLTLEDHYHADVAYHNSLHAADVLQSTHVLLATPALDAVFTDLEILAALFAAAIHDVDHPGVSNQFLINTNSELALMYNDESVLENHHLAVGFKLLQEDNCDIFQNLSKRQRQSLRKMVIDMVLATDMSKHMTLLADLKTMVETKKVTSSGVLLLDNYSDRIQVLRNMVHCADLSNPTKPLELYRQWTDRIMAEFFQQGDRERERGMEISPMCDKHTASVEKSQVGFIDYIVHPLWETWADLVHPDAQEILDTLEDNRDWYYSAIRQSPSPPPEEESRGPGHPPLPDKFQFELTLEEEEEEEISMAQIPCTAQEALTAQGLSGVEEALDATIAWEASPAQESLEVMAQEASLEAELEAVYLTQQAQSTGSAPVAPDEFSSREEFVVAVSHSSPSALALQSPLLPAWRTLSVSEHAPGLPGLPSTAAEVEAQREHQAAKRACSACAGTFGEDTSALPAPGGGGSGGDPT

inhibition at 0.01 µM ([1]; 10 nM, N=2, Example 4): 23%
inhibition at 0.03 µM ([1]; 0.03 μM, N=2, Example 4): 37%
inhibition at 0.1 µM ([1]; 0.1 μM, N=2, Example 4): 58%
inhibition at 0.3 µM ([1]; 0.3 μM, N=2, Example 4): 75%
inhibition at 1 µM ([1]; 1 μM, N=2, Example 4): 87%
inhibition at 3 µM ([1]; 3 μM, N=2, Example 4): 93%
inhibition at 10 µM ([1]; N=2, Example 3): 99%
inhibition at 10 µM ([1]; N=2, Example 4): 96%
IC50 ([1]; Example 4): 63 nM
inhibition at 10 µM [3]: 11%
inhibition at 10 µM [4]: 14%
inhibition at 0.01 µM ([5]; 10 nM, N=2, Example 4): 17%
inhibition at 0.03 µM ([5]; 0.03 μM, N=2, Example 4): 34%
inhibition at 0.1 µM ([5]; 0.1 μM, N=2, Example 4): 49%
inhibition at 0.3 µM ([5]; 0.3 μM, N=2, Example 4): 70%
inhibition at 1 µM ([5]; 1 μM, N=2, Example 4): 83%
inhibition at 3 µM ([5]; 3 μM, N=2, Example 4): 91%
inhibition at 10 µM ([5]; N=2, Example 3): 96%
inhibition at 10 µM ([5]; N=2, Example 4): 94%
IC50 ([5]; Example 4): 94 nM
SMILES: CNc1nc(Nc2ccccc2)nc(OCC(F)(F)C(F)F)n1 [compound of Formula (I), N^2-methyl-N^4-phenyl-6-(2,2,3,3-tetrafluoropropoxy)-1,3,5-triazine-2,4-diamine]
Mutations or biologically relevant clastogenic effects [2]: does not induce mutations or biologically relevant clastogenic effects
